Reference: patent US8299296B2, “Spiro compounds and pharmaceutical use thereof” (Japan Tobacco Inc., priority 2007, dated 2012)
Counter-ions that a name gives are not always drawn.

Target: T1, human GPR40 (Homo sapiens, UniProt O14842)
T1 construct: expressed in transfected cells
Test: Ca2+ mobilization (FLIPR) in a stable GPR40-expressing cell; GPR40 agonist activity
Type: cell-based
Settings: compound concentration corresponding to 50% PosiC, 100% = intracellular calcium level induced by 80 μM palmitic acid
Protocol: Evaluation of effect of test compounds on Ca^2+ mobilization by using a stable GPR40-expressing cell A stable human GPR40-expressing HEK293 cell was used. A cell suspension was prepared such that the above-mentioned cells were present at 6×10^5 cells/mL in a cell culture medium (D-MEM (Nikken Bio Medical Laboratory) supplemented with 10% (v/v) fetal bovine serum (Biowest) and 1% (v/v) penicillin-streptomycin solution (Invitrogen)). The cell suspension was plated in a 384-well plate (poly-D-lysine coated plate; Falcon) in a volume of 25 μl/well, and the plate was incubated at 37° C. in an atmosphere of 5% CO2 overnight. Each test compound was added to the cell at each concentration as below, and then the change in intracellular calcium level was measured by FLIPR^TETRA (Molecular Devices). Before the FLIPR assay, the following preparative solutions were prepared. First, an assay buffer was prepared for use in the preparation of a fluorescent dye solution and a diluent buffer solution. The assay buffer was prepared by adding 1M HEPES solution (Invitrogen) to Hanks' Balanced Salt Solution (Invitrogen), followed by adjusting the pH to 7.4 with 1M NaOH (Nacalai Tesque). Next, the fluorescent dye solution and the diluent buffer solution were prepared. The fluorescent dye solution was prepared in accordance with the instruction manual attached to Fluo-4NW calcium assay kit (Invitrogen), followed by addition of bovine serum albumin (Sigma) to a final concentration of 0.1% (w/v). The diluent buffer solution was prepared by adding bovine serum albumin (Sigma) to the assay buffer to give a final concentration of 0.1% (w/v). After removing a medium supernatant from the cell culture plate incubated overnight, the fluorescent dye solution was added to the plate in a volume of 25 μl/well. The plate was incubated at 37° C. in an atmosphere of 5% CO2 for 90 minutes to promote the fluorescent dye uptake in the cell. Meanwhile, the test compounds (i.e., the compounds prepared in Examples) dissolved in dimethyl sulfoxide (DMSO; Nacalai Tesque) were diluted with the diluent buffer solution, to prepare each compound solution at each concentration. In addition, a palmitic acid solution was prepared as a positive control solution (hereinafter abbreviated as PosiC). A 40 μl aliquot of each sample solution prepared as above was added to each well of a 384-well polypropylene plate to prepare a compound plate. Finally, after the sufficient uptake of the fluorescent dye in the cell, the cell plate and the compound plate were set to FLIPR^TETRA. After the above pretreatment, the change in intracellular calcium level was measured by FLIPR^TETRA upon addition of 25 μl of each test compound solution at each concentration. The GPR40 agonist activity of each test compound at each concentration was determined as a relative activity level (% PosiC) with the intracellular calcium level induced by 80 μM palmitic acid (a GPR40 agonist) set to 100%. Next, each compound concentration corresponding to 50% PosiC was calculated based on the % PosiC value, to compare between agonist activities of the test compounds. In the tables, “++++” indicates 0.01 μM or more but less than 0.1 μM, “+++” indicates 0.1 μM or more but less than 1 μM, “++” indicates 1 μM or more but less than 10 μM, and “+” indicates 10 μM or more for 50% posiC value. In the tables, “N.T.” indicates “not tested”.

T1 sequence (O14842 whole entry): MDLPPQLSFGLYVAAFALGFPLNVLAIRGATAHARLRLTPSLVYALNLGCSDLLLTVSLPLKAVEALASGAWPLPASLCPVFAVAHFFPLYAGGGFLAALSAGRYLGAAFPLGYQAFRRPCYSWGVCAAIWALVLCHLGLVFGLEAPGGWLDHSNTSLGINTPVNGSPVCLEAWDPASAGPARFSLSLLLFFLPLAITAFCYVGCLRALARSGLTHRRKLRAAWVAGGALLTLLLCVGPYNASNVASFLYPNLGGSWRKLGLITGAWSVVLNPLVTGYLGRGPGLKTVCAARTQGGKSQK

Structure (SMILES)	EC50 [µM]
CC#C[C@H](CC(=O)O)c1ccc(OCC2=CC3(CCCC3)CCC2)cc1 [Example 94, (R)-3-[4-(spiro[4.5]dec-6-en-7-ylmethoxy)-phenyl]-hex-4-ynoic acid L-lysine salt]	1 to 10
CC#C[C@@H](CC(=O)O)c1ccc(OCC2=C[C@@]3(CCC2)CC[C@H](O)C3)cc1 [Example 99, (3S)-3-[4-((2S,5S)-2-hydroxy-spiro[4.5]dec-6-en-7-ylmethoxy)-phenyl]-hex-4-ynoic acid sodium salt]	1 to 10
CC#C[C@@H](CC(=O)O)c1ccc(OCC2=CC3(CCCCC3)CC2)cc1 [Example 16, (S)-3-[4-(spiro[4.5]dec-1-en-2-ylmethoxy)-phenyl]-hex-4-ynoic acid sodium salt]	0.1 to 1
CC1CCCC(C)C12CCCC(COc1ccc(CCC(=O)O)cc1)C2 (racemic) [Example 51, 3-[4-(7,11-dimethyl-spiro[5.5]undec-2-ylmethoxy)-phenyl]-propionic acid]	1 to 10
CC1(C)CCCCC12CCCC(COc1ccc(CCC(=O)O)cc1)C2 (racemic) [Example 56, 3-[4-(7,7-dimethyl-spiro[5.5]undec-2-ylmethoxy)-phenyl]-propionic acid]	1 to 10
CC#C[C@@H](CC(=O)O)c1ccc(OCC2=CC3(CCCC3)CC2)cc1 [Example 17, (S)-3-[4-(spiro[4.4]non-1-en-2-ylmethoxy)-phenyl]-hex-4-ynoic acid]	0.1 to 1
CC#C[C@@H](CC(=O)O)c1ccc(OCC2=C[C@@]3(CCC2)CC[C@@H](O)C3)cc1 [Example 101, (3S)-3-[4-((2R,5S)-2-hydroxy-spiro[4.5]dec-6-en-7-ylmethoxy)-phenyl]-hex-4-ynoic acid sodium salt]	0.1 to 1
O=C(O)CCc1ccc(OCC2=CC3(CCCC3)CCC2)c(F)c1 [Example 112, 3-[3-fluoro-4-(spiro[4.5]dec-6-en-7-ylmethoxy)-phenyl]-propionic acid]	≥ 10
CCOC(CC(=O)O)c1ccc(OCC2=CC3(CCCCC3)CCC2)cc1 (single isomer, unassigned; (-)) [Example 120, (−)-3-ethoxy-3-[4-(spiro[5.5]undec-1-en-2-ylmethoxy)-phenyl]-propionic acid L-lysine salt]	0.1 to 1
Cc1cc(OCC2=CC3(CCCC3)CCC2)ccc1CCC(=O)O [Example 109, 3-[2-methyl-4-(spiro[4.5]dec-6-en-7-ylmethoxy)-phenyl]-propionic acid]	1 to 10
CC#C[C@@H](CC(=O)O)c1ccc(OCC2=C[C@@]3(CCC2)CCC(=O)C3)cc1 [Example 97, (3S)-3-[4-((5S)-2-oxo-spiro[4.5]dec-6-en-7-ylmethoxy)-phenyl]-hex-4-ynoic acid sodium salt]	0.1 to 1
CC#C[C@@H](CC(=O)O)c1ccc(OCC2=C[C@]3(CCC2)CC[C@@H](O)C3)cc1 [Example 105, (3S)-3-[4-((2R,5R)-2-hydroxy-spiro[4.5]dec-6-en-7-ylmethoxy)-phenyl]-hex-4-ynoic acid sodium salt]	1 to 10
CC1(C)CCC2(CCCC(COc3ccc(CCC(=O)O)cc3)C2)CC1 (racemic) [Example 54, 3-[4-(9,9-dimethyl-spiro[5.5]undec-2-ylmethoxy)-phenyl]-propionic acid]	1 to 10
CC1(C)CC(COc2ccc(CCC(=O)O)cc2)CC2(CCCC2)C1 (racemic) [Example 115, 3-[4-(9,9-dimethyl-spiro[4.5]dec-7-ylmethoxy)-phenyl]-propionic acid]	1 to 10
O=C(O)CC(c1ccccc1)c1ccc(OCC2CCCC3(CCCCC3)C2)cc1 (racemic) [Example 60, 3-phenyl-3-[4-(spiro[5.5]undec-2-ylmethoxy)-phenyl]-propionic acid]	1 to 10
CC#C[C@@H](CC(=O)O)c1ccc(OCC2=C[C@]3(CCC2)CCC(=O)C3)cc1 [Example 103, (3S)-3-[4-((5R)-2-oxo-spiro[4.5]dec-6-en-7-ylmethoxy)-phenyl]-hex-4-ynoic acid sodium salt]	0.1 to 1
O=C(O)CCc1ccc(OCC2CCC3(CCCCC3)CC2)cc1 [Example 57, 3-[4-(spiro[5.5]undec-3-ylmethoxy)-phenyl]-propionic acid]	1 to 10
O=C1NC(=O)C(Cc2ccc(OCC3CCCC4(CCCCC4)C3)cc2)S1 (racemic) [Example 67, 5-[4-(spiro[5.5]undec-2-ylmethoxy)-benzyl]-thiazolidine-2,4-dione]	≥ 10
CC1(C)CCCC2(CCCC(COc3ccc(CCC(=O)O)cc3)C2)C1 (racemic) [Example 48, 3-[4-(8,8-dimethyl-spiro[5.5]undec-2-ylmethoxy)-phenyl]-propionic acid]	1 to 10
O=C(O)CCc1ccc(OCCC2CCCC3(CCCCC3)C2)cc1 (racemic) [Example 62, 3-[4-(2-spiro[5.5]undec-2-yl-ethoxy)-phenyl]-propionic acid]	≥ 10

Further lines, results first:

EC50 [µM]	Structure (SMILES)
0.01 to 0.1	CC#C[C@@H](CC(=O)O)c1ccc(OCC2CCCC3(CCCCC3)C2)cc1 (mixture of isomers) [Example 28, (3S)-3-[4-(spiro[5.5]undec-2-ylmethoxy)-phenyl]-hex-4-ynoic acid]
1 to 10	COCC(CC(=O)O)c1ccc(OCC2CCCC3(CCCCC3)C2)cc1 (racemic) [Example 71, 4-methoxy-3-[4-(spiro[5.5]undec-2-ylmethoxy)-phenyl]-butyric acid]
0.1 to 1	CC#C[C@@H](CC(=O)O)c1ccc(OCC2CCCC3(CCCC3)C2)cc1 (single isomer, unassigned) [Example 37]
0.1 to 1	CCOC(CC(=O)O)c1ccc(OCC2CCCC3(CCCCC3)C2)cc1 (racemic) [Example 75, 3-ethoxy-3-[4-(spiro[5.5]undec-2-ylmethoxy)-phenyl]-propionic acid]
1 to 10	CC#C[C@@H](CC(=O)O)c1ccc(OCC2CCCCC3(CC3)C2)cc1 (mixture of isomers) [Example 116, (3S)-3-[4-(spiro[2.6]non-5-ylmethoxy)-phenyl]-hex-4-ynoic acid]
1 to 10	COC(CC(=O)O)c1ccc(OCC2CCCC3(CCCCC3)C2)cc1 (racemic) [Example 80, 3-methoxy-3-[4-(spiro[5.5]undec-2-ylmethoxy)-phenyl]-propionic acid]
1 to 10	CCC#CC(CC(=O)O)c1ccc(OCC2CCCC3(CCCCC3)C2)cc1 (racemic) [Example 84, 3-[4-(spiro[5.5]undec-2-ylmethoxy)-phenyl]-hept-4-ynoic acid]
0.1 to 1	CC#C[C@@H](CC(=O)O)c1ccc(OC2CCC3(CCCCC3)CC2)cc1 [Example 63, (3S)-3-[4-(spiro[5.5]undec-3-yloxy)-phenyl]-hex-4-ynoic acid]
1 to 10	O=C(O)CCc1ccc(OCC2CCCC3(CCCCC3)C2)cc1 (single isomer, unassigned) [Example 89, 3-[4-(spiro[5.5]undec-2-ylmethoxy)-phenyl]-propionic acid (chiral: B)]
0.1 to 1	CC#C[C@@H](CC(=O)O)c1ccc(OCC2CCC3(CCC3)C2)cc1 (mixture of isomers) [Example 118, (3S)-3-[4-(spiro[3.4]oct-6-ylmethoxy)-phenyl]-hex-4-ynoic acid]
1 to 10	CCC[C@@H](CC(=O)O)c1ccc(OCC2CCCC3(CCCCC3)C2)cc1 (mixture of isomers) [Example 78, (3S)-3-[4-(spiro[5.5]undec-2-ylmethoxy)-phenyl]-hexanoic acid]
0.1 to 1	CC(C)OC(CC(=O)O)c1ccc(OCC2CCCC3(CCCCC3)C2)cc1 (racemic) [Example 81, 3-isopropoxy-3-[4-(spiro[5.5]undec-2-ylmethoxy)-phenyl]-propionic acid]
0.01 to 0.1	CC#C[C@@H](CC(=O)O)c1ccc(OCC2=CCCC3(CCCCC3)C2)cc1 [Example 2, (S)-3-[4-(spiro[5.5]undec-2-en-2-ylmethoxy)-phenyl]-hex-4-ynoic acid sodium salt]
0.1 to 1	CC#C[C@@H](CC(=O)O)c1ccc(OCC2CCCC3(CCCCC3)C2O)cc1 (mixture of isomers) [Example 70, (3S)-3-[4-(1-hydroxy-spiro[5.5]undec-2-ylmethoxy)-phenyl]-hex-4-ynoic acid]
